Measured values taken from the NIST ThermoML archive (doi:10.1021/acs.jced.5b00989).
Numbers after ± are expanded uncertainties.

Experiment: molar heat capacity at constant pressure; xn = mol fraction of the nth substance listed
Conditions: 100 kPa, Liquid, Small sample (50 mg) DSC

O=C(CO)[C@@H](O)[C@H](O)[C@H](O)CO [D-fructose] + C[N+](C)(C)CCO.[Cl-]
x2 = 0.67
Conditions	molar heat capacity at constant pressure [J/K/mol]
298.15 K	311.5 ± 7.6
300.65 K	313.8 ± 7.7
303.15 K	316.7 ± 7.8
305.65 K	319.4 ± 7.8
308.15 K	322 ± 7.9
310.65 K	324.2 ± 7.9
313.15 K	326.2 ± 8
315.65 K	328.3 ± 8
318.15 K	330.5 ± 8.1
320.65 K	332.6 ± 8.2
323.15 K	334.1 ± 8.2
325.65 K	334.9 ± 8.2
328.15 K	335.8 ± 8.2
330.65 K	336.1 ± 8.2
333.15 K	335.8 ± 8.2
335.65 K	335.7 ± 8.2
338.15 K	335.2 ± 8.2
340.65 K	334.7 ± 8.2
343.15 K	335.2 ± 8.2
345.65 K	335.8 ± 8.2
348.15 K	336.6 ± 8.2
350.65 K	337.7 ± 8.3
353.15 K	340.1 ± 8.3

C[N+](C)(C)CCO.[Cl-] [choline chloride] + O=C[C@H](O)[C@@H](O)[C@H](O)[C@H](O)CO
x1 = 0.67
Conditions	molar heat capacity at constant pressure [J/K/mol]
298.15 K	327.5 ± 8
300.65 K	329.1 ± 8.1
303.15 K	330.7 ± 8.1
305.65 K	332.4 ± 8.1
308.15 K	334.5 ± 8.2
310.65 K	336.7 ± 8.3
313.15 K	338.6 ± 8.3
315.65 K	340.6 ± 8.3
318.15 K	342.5 ± 8.4
320.65 K	344.5 ± 8.4
323.15 K	346 ± 8.5
325.65 K	347.2 ± 8.5
328.15 K	348.4 ± 8.5
330.65 K	349.5 ± 8.6
333.15 K	350.6 ± 8.6
335.65 K	350.9 ± 8.6
338.15 K	351.4 ± 8.6
340.65 K	352 ± 8.6
343.15 K	352.6 ± 8.6
345.65 K	353.8 ± 8.7
348.15 K	354.2 ± 8.7
350.65 K	354.4 ± 8.7
353.15 K	356.3 ± 8.7

C[N+](C)(C)CCO.[Cl-] [choline chloride] + Oc1ccccc1
x1 = 0.25
Conditions	molar heat capacity at constant pressure [J/K/mol]
298.15 K	219.3 ± 5.4
300.65 K	220.3 ± 5.4
303.15 K	221.2 ± 5.4
305.65 K	222.3 ± 5.4
308.15 K	223.3 ± 5.5
310.65 K	224.2 ± 5.5
313.15 K	225.1 ± 5.5
315.65 K	225.8 ± 5.5
318.15 K	226.6 ± 5.6
320.65 K	227.1 ± 5.6
323.15 K	227.9 ± 5.6
325.65 K	228.6 ± 5.6
328.15 K	229.3 ± 5.6
330.65 K	230.2 ± 5.6
333.15 K	231.1 ± 5.7
335.65 K	231.9 ± 5.7
338.15 K	232.6 ± 5.7
340.65 K	233.1 ± 5.7
343.15 K	233.5 ± 5.7
345.65 K	234.3 ± 5.7
348.15 K	234.5 ± 5.7
350.65 K	235 ± 5.8
353.15 K	236.8 ± 5.8

O=C(O)CC(O)(CC(=O)O)C(=O)O [citric acid] + C[N+](C)(C)CCO.[Cl-]
x2 = 0.33
Conditions	molar heat capacity at constant pressure [J/K/mol]
298.15 K	422 ± 10
300.65 K	422.9 ± 10
303.15 K	424 ± 10
305.65 K	425.2 ± 10
308.15 K	426.1 ± 10
310.65 K	427.2 ± 10
313.15 K	428.7 ± 10
315.65 K	429.8 ± 10
318.15 K	430.6 ± 10
320.65 K	431.9 ± 11
323.15 K	433 ± 11
325.65 K	433.5 ± 11
328.15 K	435.4 ± 11
330.65 K	436.7 ± 11
333.15 K	437.5 ± 11
335.65 K	438.6 ± 11
338.15 K	439.7 ± 11
340.65 K	440.6 ± 11
343.15 K	442.1 ± 11
345.65 K	446.1 ± 11
348.15 K	447.2 ± 11
350.65 K	446.8 ± 11
353.15 K	449.4 ± 11

O=C(O)C(=O)O [ethanedioic acid] + C[N+](C)(C)CCO.[Cl-]
x2 = 0.33
Conditions	molar heat capacity at constant pressure [J/K/mol]
298.15 K	270.8 ± 6.6
300.65 K	271.8 ± 6.7
303.15 K	272.1 ± 6.7
305.65 K	272.7 ± 6.7
308.15 K	273.6 ± 6.7
310.65 K	274.6 ± 6.7
313.15 K	275.4 ± 6.7
315.65 K	276.3 ± 6.8
318.15 K	276.8 ± 6.8
320.65 K	277 ± 6.8
323.15 K	277.1 ± 6.8
325.65 K	277.4 ± 6.8
328.15 K	277.8 ± 6.8
330.65 K	278.3 ± 6.8
333.15 K	278.7 ± 6.8
335.65 K	279.6 ± 6.8
338.15 K	280 ± 6.9
340.65 K	280.6 ± 6.9
343.15 K	281.2 ± 6.9
345.65 K	281.7 ± 6.9
348.15 K	281.9 ± 6.9
350.65 K	282.2 ± 6.9
353.15 K	282.9 ± 6.9

C[P+](c1ccccc1)(c1ccccc1)c1ccccc1.[Br-] [methyltriphenylphosphonium bromide] + O=C(O)CC(=O)O
x1 = 0.4
Conditions	molar heat capacity at constant pressure [J/K/mol]
298.15 K	336.9 ± 8.3
300.65 K	338 ± 8.3
303.15 K	339.2 ± 8.3
305.65 K	340 ± 8.3
308.15 K	341 ± 8.4
310.65 K	342.1 ± 8.4
313.15 K	343.1 ± 8.4
315.65 K	343.9 ± 8.4
318.15 K	345.2 ± 8.5
320.65 K	346 ± 8.5
323.15 K	346.6 ± 8.5
325.65 K	347.4 ± 8.5
328.15 K	348.4 ± 8.5
330.65 K	350.1 ± 8.6
333.15 K	350.3 ± 8.6
335.65 K	350.7 ± 8.6
338.15 K	351.3 ± 8.6
340.65 K	351.5 ± 8.6
343.15 K	351.9 ± 8.6
345.65 K	352.1 ± 8.6
348.15 K	352.5 ± 8.6
350.65 K	354 ± 8.7
353.15 K	354.2 ± 8.7

C[P+](c1ccccc1)(c1ccccc1)c1ccccc1.[Br-] [methyltriphenylphosphonium bromide] + OCC(O)CO
x1 = 0.25
Conditions	molar heat capacity at constant pressure [J/K/mol]
298.15 K	328.5 ± 8
300.65 K	329.6 ± 8.1
303.15 K	330.5 ± 8.1
305.65 K	331.6 ± 8.1
308.15 K	332.7 ± 8.2
310.65 K	333.7 ± 8.2
313.15 K	334.8 ± 8.2
315.65 K	335.8 ± 8.2
318.15 K	336.5 ± 8.2
320.65 K	338.1 ± 8.3
323.15 K	339.4 ± 8.3
325.65 K	339.6 ± 8.3
328.15 K	340.8 ± 8.3
330.65 K	341.8 ± 8.4
333.15 K	342.6 ± 8.4
335.65 K	343.5 ± 8.4
338.15 K	344.6 ± 8.4
340.65 K	345.7 ± 8.5
343.15 K	346.7 ± 8.5
345.65 K	347.8 ± 8.5
348.15 K	347.9 ± 8.5
350.65 K	348.3 ± 8.5
353.15 K	350.2 ± 8.6
